# Experiments:
# [1] = system: NPCs from the SVZ of Ts65Dn mice; experiment: Proliferation of NPC cultures (Cell Titer-Glo); assay type: cell-based, mouse; conditions: 96 h
# Procedure: (§1) Cells were isolated from the subventricular zone (SVZ) of the lateral ventricle and the subgranular zone (SGZ) of the hippocampal dentate gyrus (DG) of newborn (P1-P2) euploid and Ts65Dn mice. Briefly, brains were removed, the SVZ and SGZ regions were isolated and individually collected in ice-cold PIPES buffer pH 7.4. After centrifugation, tissue was digested for 10 min at 37° C. using Trypsin/EDTA 0.25% (Life Technologies) aided by gentle mechanical dissociation. Cell suspension from each individual mouse was plated onto 25 cm^2 cell-culture flask (Thermo Fisher Scientific) and cultured as floating neurospheres in medium containing basic fibroblast growth factor (bFGF, 10 ng/ml; Peprotech) and epidermal growth factor (EGF, 20 ng/ml; Peprotech) using an established protocol (Meneghini et al., 2014). […] Cell proliferation was quantified as relative luminescence units (RLU) values using Cell Titer-Glo viability assay reagent (Promega) on aVictor^3-V plate reader (PerkinElmer). […] In each experiment, five fields/well (corresponding to about 150-200 cells/well) were counted with a 60× objective by a Leica DMIRB inverted fluorescence microscope. Immunoreactive cells were counted and their percentage over total viable cells was calculated. […]
# [2] = system: NPCs from the SVZ of Ts65Dn mice; experiment: Differentiation of NPC cultures (MAP2/Nestin immunolocalization); assay type: cell-based, mouse; conditions: 96 h, differentiating conditions
# Procedure: as §1
# synaptophysin (SYN) = experiment: Western blot of hippocampal homogenates: synaptophysin; assay type: in vivo, mouse
# Procedure: Euploid and Ts65Dn mice received a daily subcutaneous injection (at 9-10 am) of 7,8-DHF (5.0 mg/kg in vehicle: PBS with 1% DMSO) or vehicle from postnatal day 3 (P3) to postnatal day 15. This timing was chosen because it corresponds to that previously used to test the effects of fluoxetine and other pharmacotherapies in the neonate Ts65Dn mouse (Bianchi et al., 2010b; Giacomini et al., 2015; Stagni et al., 2016). Mice that received 7,8-DHF will be called “treated mice” (treated euploid mice: n=25; treated Ts65Dn mice: n=15). Mice that received the vehicle will be called “untreated mice” (untreated euploid mice: n=35; untreated Ts65Dn mice: n=21). […] The brains were excised and cut along the midline. The left hemisphere of a group of mice was fixed by immersion in PFA 4% and frozen, and the left hemisphere of another group of mice was used for Golgi staining. […]
# In homogenates of the hippocampal formation of P15 mice, total proteins were obtained as previously described (Trazzi et al., 2011) and the levels of the following proteins were evaluated: BDNF, TrkB full length (TrkB-FL), phosphorylated TrkB (p-TrkB), the truncated form 1 of the TrkB receptor (TrkB-T1), phosphorylated ERK1 (p-ERK1), phosphorylated ERK2 (p-ERK2), ERK1, ERK2, synaptophysin (SYN), GAPDH and α-Tubulin using the antibodies reported in Table 1. […]
# [3] = Prenatal treatment: abortion rate, pups per litter, mortality of progeny
# Procedure: (§2) Ts65Dn females (n=4) were bred C57BL/6JEi×C3SnHeSnJ (B6EiC3) F1 males (n=4). Conception was determined by examining the vaginal plug. Pregnant females received a daily subcutaneous injection of either 7,8-DHF (Sigma-Aldrich) in PBS with 2% DMSO (dose: 5 mg/kg) or vehicle from the embryonic (E) day 10 (E10) to the day of delivery (E20/21). […] On postnatal day 2 (P2) the progeny of 7,8-DHF-treated and vehicle-treated females received an intraperitoneal injection (150 μg/g body weight) of BrdU (Sigma) in 0.9% NaCl solution and were killed after 2 h (on P2; 4-8 animals for each group). Vehicle-treated females and their progeny will be called hereafter untreated mice. The body weight of P2 mice was recorded prior to sacrifice. After sacrifice, brain was excised and weighed.
# The Ts65Dn strain is characterized by a high mortality rate during gestation (Roper et al., 2006).
# [4] = Prenatal treatment: body and brain weight of P2 mice; assay type: in vivo, mouse; conditions: P2 Ts65Dn mice, embryonic treatment
# Procedure: as §2
# TrkB receptor = TrkB receptor (Homo sapiens, UniProt Q16620); conditions: Liu et al., 2010 and 2013; cited from earlier work
# Sequence of TrkB receptor (Q16620 32-822): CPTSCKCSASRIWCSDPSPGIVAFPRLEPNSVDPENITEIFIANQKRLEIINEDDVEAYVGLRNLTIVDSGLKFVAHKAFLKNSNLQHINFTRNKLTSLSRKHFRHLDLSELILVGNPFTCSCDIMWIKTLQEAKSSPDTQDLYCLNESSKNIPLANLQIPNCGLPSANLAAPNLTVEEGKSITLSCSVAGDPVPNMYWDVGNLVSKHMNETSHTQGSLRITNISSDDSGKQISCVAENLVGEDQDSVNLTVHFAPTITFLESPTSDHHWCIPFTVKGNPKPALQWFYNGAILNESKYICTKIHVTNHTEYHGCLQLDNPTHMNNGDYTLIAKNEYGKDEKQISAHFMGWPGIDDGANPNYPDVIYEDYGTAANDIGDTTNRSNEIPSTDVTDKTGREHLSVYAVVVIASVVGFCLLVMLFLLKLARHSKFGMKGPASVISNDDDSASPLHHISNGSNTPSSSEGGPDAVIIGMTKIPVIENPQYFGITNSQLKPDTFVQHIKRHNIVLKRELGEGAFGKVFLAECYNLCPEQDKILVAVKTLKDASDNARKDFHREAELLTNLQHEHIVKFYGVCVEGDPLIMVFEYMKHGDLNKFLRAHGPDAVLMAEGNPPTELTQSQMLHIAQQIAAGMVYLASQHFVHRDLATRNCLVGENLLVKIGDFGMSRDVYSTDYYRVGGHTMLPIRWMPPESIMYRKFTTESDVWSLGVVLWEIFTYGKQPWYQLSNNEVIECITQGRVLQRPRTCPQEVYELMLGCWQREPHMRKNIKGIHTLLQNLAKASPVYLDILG
smiles,measurement,setting,value
"O=c1cc(-c2ccccc2)oc2c(O)c(O)ccc12 [7,8-DHF, 7,8-dihydroxyflavone]",proliferation rate of trisomic NPCs,[1]; highest concentration 10.0 μM,reduced proliferation
same,proliferation rate of trisomic NPCs,"[1]; tested concentrations 0.3-10.0 μM, vs vehicle",none of the tested concentrations was able to increase the proliferation rate
same,percentage of Nestin+/MAP2- cells,[2],no change
same,percentage of MAP2+/Nestin− cells,"[2]; all concentrations, vs standard medium",large increase
same,SYN levels in the hippocampus,"synaptophysin (SYN); P15 Ts65Dn mice, became similar to untreated euploid mice",increased SYN levels
same,SYN levels in the hippocampus,"synaptophysin (SYN); P15 euploid mice, vs untreated counterparts",increase in SYN levels
same,mean number of pups per litter,"[3]; female, Ts65Dn, mouse, in vivo",5.33±2.04
same,spontaneous abortion,"[3]; mouse, in vivo",none of untreated and treated females underwent spontaneous abortion
same,mortality rate of the progeny,"[3]; treated females, mean±ES, vehicle 0.00±0.00, p=0.219",0.66±0.81
same,body weight,[4],did not further reduce the body weight
same,binding to the TrkB receptor,TrkB receptor,high affinity and specificity

# Reference: patent US10945989B2, “Perinatal treatment with a flavonoid agonist of the TrkB receptor for BDNF rescues neurogenesis and behavior in the Ts65Dn mouse model of DS” (ALMA MATER STUDIORUM—Universita' di Bologna, priority 2017, dated 2021)
